We go through 9 compounds from patent publication US20050123476A1 (priority 2001, published 2005).

One test has as its target uPA (Homo sapiens, UniProt P00749). As to conditions: cited from earlier work.
The subject of a further test is HT1080 cells. It counts as cell-based, human.
In a further test the test system is HeLa cells. It counts as cell-based, human.
Test [1] has as its system human cervix adenocarcinoma HeLa cells. It counts as cell-based.

Turning to SGRSA, on uPA, the “cleavage by uPA, times more efficiently than the physiological cleavage site present in plasminogen” value is 1363 fold and the “uPA:tPA selectivity” value is recorded as 20.

As to `CNC(=O)[C@@H](NC(=O)[C@H](CC(C)C)[C@H](O)C(=O)NO)C(C)(C)C` [BB-2516, Marimastat], in the test with HT1080 cells, the “protection of HT1080 cells against WT-PA plus FP59” value is recorded as “did not protect”; the “protection of HT1080 cells against challenge with PA-L1 and PA-L2 plus FP59” value is reported as “conferred clear protection”.

With tranexamic acid [tranexainic acid], in the test with HeLa cells, the “effect on activation of pro-uPA by HeLa cells” value is reported as “strongly inhibited”, the “effect on binding/processing (activation) of PrAg-U2 on the HeLa cell surface” value is reported as “strongly inhibited” and the “effect on processing/activation of native PrAg by cells” value is “not”. Consider Aprotinin, for which, in test [1], the “effect on killing of HeLa cells by PrAg-U2 plus FP59” value was “protected” and the “effect on killing of HeLa cells by native PrAg plus FP59” value is “had no effect”. In the case of PQRGRSA, the “uPA:tPA selectivity” value on uPA is 0.005. With PCPGRVVGG, the “uPA:tPA selectivity” value on uPA is 3.0. Turning to PGSGRSA, the “uPA:tPA selectivity” value at uPA was 20. In the case of `CNC(=O)[C@H](Cc1c[nH]c2ccccc12)NC(=O)[C@@H](CC(=O)NO)CC(C)C` [GM6001], in the test with HT1080 cells, the “protection of HT1080 cells against WT-PA plus FP59” value is reported as “did not protect”; the “protection of HT1080 cells against challenge with PA-L1 and PA-L2 plus FP59” value is listed as “conferred clear protection”. Consider PGSGKSA, for which, at uPA, the “uPA:tPA selectivity” value is reported as 121.
